Experimental data as given in US20030139362A1, “Methods of treating cognitive decline disease conditions with androgens” (priority 2000, published 2003).

Legend:
women = settings: literature: Sherwin 1988 (surgically menopausal women); Yaffe 2000 (women with apoE4); cited from earlier work
female apoE4 mice = settings: for probe trial (platform removed): time searching in the target quadrant: female apoE4 mice, P<0.05, Tukey-Kramer test, placebo-treated mice did not
From the text: We tested whether administration of androgens might be successful for improving cognition in apoE4 female mice.

[1] = plasma hormone levels by radioimmunoassay (RIA); format: in vivo; settings: testosterone-treated female mice, subcutaneous Silastic capsule, after the behavioral testing
[2] = six-month-old female apoE4 mice, subcutaneous Silastic capsule, tested eight days after implantation

Molecule | cognition / cognitive function in women (women) | probe trial (platform removed): time searching in the target quadrant (female apoE4 mice) | memory retention in the water maze (female apoE4 mice; [2]) | plasma testosterone levels [1] | learning in the water maze (hidden platform sessions) (female apoE4 mice; six-month-old female apoE4 mice, subcutaneous Silastic capsule, tested eight days after implantation, P<0.05 vs placebo)
Estrogen | failed to preserve cognitive function in women with apoE4 |  |  |  | 
C[C@]12CCC(=O)C[C@@H]1CC[C@@H]1[C@@H]2CC[C@]2(C)[C@@H](O)CC[C@@H]12 [dihydrotestosterone] |  | spent significantly more time searching in the target quadrant than in any of the other quadrants | improved memory retention |  | 
C[C@]12CC[C@H]3[C@@H](CCC4=CC(=O)CC[C@@]43C)[C@@H]1CC[C@@H]2O [testosterone] | improved cognition in surgically menopausal women | spent significantly more time searching in the target quadrant than in any of the other quadrants | improved memory retention | 5.61 ± 0.74 ng/mL | improved learning
